# What was measured:
# [1] = tested on: PANX1-GFP; assay: Proteolytic cleavage of PANX1-GFP during apoptosis; format: cell-based; conditions: 500 μM
# [2] = target: T1, PANX1 (Homo sapiens, UniProt Q96RD7); format: cell-based; conditions: Jurkat cells 2h anti-Fas, trovafloxacin 20 μM; for effect on outward current of apoptotic cells: at +80mV; for effect on inward current of apoptotic cells: at -50mV
# [3] = tested on: apoptotic Jurkat cells; assay: Formation of apoptotic bodies from apoptotic Jurkat cells; format: cell-based; conditions: for formation of apoptotic bodies: Jurkat cells, anti-Fas induced apoptosis; for formation of apoptotic bodies in Jurkat cells expressing PANX1 DN mutant: inhibitors of blebbing
# [4] = tested on: apoptotic Jurkat cells; assay: Time-lapse microscopy of apoptotic cell morphology; format: cell-based; conditions: time-lapse imaging
# [5] = tested on: primary thymocytes; format: cell-based, mouse; conditions: 10 μM
# [6] = tested on: Escherichia coli; assay: Bacterial growth assay; format: cell-based; conditions: 6h incubation, O.D. at 600 nm
# [7] = target: T1, PANX1; assay: TO-PRO-3 uptake by apoptotic Jurkat cells; format: cell-based; conditions: for inhibition of TO-PRO-3 uptake (PANX1-dependent dye uptake) by apoptotic cells: anti-Fas, compound present during apoptosis induction
# [8] = target: T1, PANX1; assay: ATP release from apoptotic cells; format: cell-based; conditions: apoptotic Jurkat cells
# [9] = tested on: caspase 3/7; assay: Caspase 3/7 activation in Jurkat cells undergoing apoptosis; format: cell-based; conditions: trovafloxacin 40 μM
# [10] = target: connexin 43 (Cx43) (Homo sapiens, UniProt P17302); assay: Whole-cell patch-clamp of Cx43 current in HEK293T cells; format: cell-based; conditions: 20 μM
# Sequence of connexin 43 (Cx43) (P17302 2-382 limits assumed, species assumed): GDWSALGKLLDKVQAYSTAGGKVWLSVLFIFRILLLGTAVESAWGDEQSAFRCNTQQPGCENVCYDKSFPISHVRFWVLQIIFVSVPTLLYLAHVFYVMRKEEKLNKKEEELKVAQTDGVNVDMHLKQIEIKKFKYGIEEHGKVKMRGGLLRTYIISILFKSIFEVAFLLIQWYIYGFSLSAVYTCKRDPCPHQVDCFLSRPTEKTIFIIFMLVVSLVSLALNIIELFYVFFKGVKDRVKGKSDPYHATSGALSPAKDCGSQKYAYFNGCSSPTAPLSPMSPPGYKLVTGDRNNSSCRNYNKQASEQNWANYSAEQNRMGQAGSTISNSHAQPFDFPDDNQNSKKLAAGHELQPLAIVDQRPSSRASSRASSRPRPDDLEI
# [11] = target: T2, mouse Panx2 (Mus musculus, UniProt Q6IMP4); assay: Whole-cell patch-clamp of Panx2 current in HEK293T cells; format: cell-based; conditions: 20 μM
# T2 sequence (Q6IMP4 1-677): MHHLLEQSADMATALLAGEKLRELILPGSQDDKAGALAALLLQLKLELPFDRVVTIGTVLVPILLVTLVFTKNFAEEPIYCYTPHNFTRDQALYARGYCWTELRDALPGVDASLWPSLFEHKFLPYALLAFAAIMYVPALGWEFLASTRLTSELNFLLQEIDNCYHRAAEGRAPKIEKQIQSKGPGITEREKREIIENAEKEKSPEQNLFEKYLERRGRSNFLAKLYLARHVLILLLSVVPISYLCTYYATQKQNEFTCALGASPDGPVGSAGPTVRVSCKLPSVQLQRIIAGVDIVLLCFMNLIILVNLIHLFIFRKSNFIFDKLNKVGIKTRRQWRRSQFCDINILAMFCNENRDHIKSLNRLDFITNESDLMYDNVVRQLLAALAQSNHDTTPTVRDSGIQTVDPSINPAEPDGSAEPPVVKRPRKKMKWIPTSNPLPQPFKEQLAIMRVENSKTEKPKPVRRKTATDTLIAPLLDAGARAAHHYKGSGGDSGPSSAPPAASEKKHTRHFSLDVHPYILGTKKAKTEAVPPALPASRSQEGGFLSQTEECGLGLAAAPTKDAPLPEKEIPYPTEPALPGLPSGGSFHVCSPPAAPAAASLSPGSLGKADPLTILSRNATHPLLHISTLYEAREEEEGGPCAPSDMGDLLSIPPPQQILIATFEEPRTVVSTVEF
# [12] = tested on: apoptotic thymocytes; assay: In vivo model of thymic apoptosis; design: species or system mouse; conditions: wild-type mice, administered with dexamethasone
# [13] = cited from earlier work
# [14] = cited from earlier work; remark: listed apart in the source
# T1 sequence (Q96RD7 1-379 limits assumed): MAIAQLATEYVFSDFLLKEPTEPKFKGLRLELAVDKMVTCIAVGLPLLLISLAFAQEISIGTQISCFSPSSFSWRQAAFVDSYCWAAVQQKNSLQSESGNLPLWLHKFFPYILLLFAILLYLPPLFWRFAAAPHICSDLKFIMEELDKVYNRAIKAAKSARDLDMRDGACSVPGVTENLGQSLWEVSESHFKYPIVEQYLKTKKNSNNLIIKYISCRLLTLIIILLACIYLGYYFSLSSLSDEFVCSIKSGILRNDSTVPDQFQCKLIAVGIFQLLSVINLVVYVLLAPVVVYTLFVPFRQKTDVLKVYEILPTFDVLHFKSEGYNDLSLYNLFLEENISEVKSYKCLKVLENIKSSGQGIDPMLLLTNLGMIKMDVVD
molecule,measurement,setting,value
"CC1(C)[C@@H](OC(=O)CCC(=O)O)CC[C@]2(C)[C@H]3C(=O)C=C4[C@@H]5C[C@@](C)(C(=O)O)CC[C@]5(C)CC[C@@]4(C)[C@]3(C)CC[C@@H]12 [CBX, carbenoxolone]",proteolytic cleavage of PANX1-GFP during apoptosis,[1],not inhibited
same,effect on outward current of apoptotic cells,[2],blocked both inward and outward currents
same,effect on inward current of apoptotic cells,[2],blocked both inward and outward currents
same,formation of apoptotic bodies,[3],promoted formation of apoptotic bodies
same,formation of apoptopodia (string-like structures) by apoptotic cells,[4],produced long string-like structures
C[C@@H](N)[C@H]1CC[C@H](C(=O)Nc2ccncc2)CC1 [Y-27632],formation of apoptotic bodies in Jurkat cells expressing PANX1 DN mutant,[3],reduce the formation of apoptotic bodies
same,enhanced formation of apoptotic bodies in apoptotic thymocytes from mice with PANX1 deficiency,[5],blunted
Cc1ccc2c(c1)C(=O)C1(O)CCN(c3ccccc3)C1=N2 (centres unmarked) [blebbistatin],formation of apoptotic bodies in Jurkat cells expressing PANX1 DN mutant,[3],reduce the formation of apoptotic bodies
O=C(O)c1cn(C2CC2)c2cc(N3CCNCC3)c(F)cc2c1=O [ciprofloxacin],Escherichia coli growth,[6],inhibit bacterial growth
C=C1[C@@H](C)[C@H]2[C@H](Cc3ccccc3)NC(=O)[C@]23[C@H](OC(C)=O)/C=C/[C@@](C)(O)C(=O)[C@@H](C)C/C=C/[C@H]3[C@@H]1O [cytochalasin D],formation of apoptotic bodies in Jurkat cells expressing PANX1 DN mutant,[3],reduce the formation of apoptotic bodies
CN1CCN(c2cc3c(cc2F)c(=O)c(C(=O)O)cn3-c2ccc(F)cc2)CC1 [difloxacin],inhibition of TO-PRO-3 uptake (PANX1-dependent dye uptake) by apoptotic cells,[7],partially inhibited ATP release and TO-PRO-3 uptake
same,inhibition of ATP release from apoptotic cells,[8],partially inhibited ATP release
same,formation of apoptotic bodies,[3],promoted the formation of apoptotic bodies
C[C@H]1COc2c(N3CCN(C)CC3)c(F)cc3c(=O)c(C(=O)O)cn1c23 [levofloxacin],inhibition of TO-PRO-3 uptake (PANX1-dependent dye uptake) by apoptotic cells,[7],did not block PANX1-dependent dye uptake
same,Escherichia coli growth,[6],inhibit bacterial growth
CCCN(CCC)S(=O)(=O)c1ccc(C(=O)O)cc1 [probenecid],formation of apoptotic bodies,[3],promoted formation of apoptotic bodies
Cc1ccc(C(=O)Nc2ccc(S(=O)(=O)O)c3cc(S(=O)(=O)O)cc(S(=O)(=O)O)c23)cc1NC(=O)c1cccc(NC(=O)Nc2cccc(C(=O)Nc3cc(C(=O)Nc4ccc(S(=O)(=O)O)c5cc(S(=O)(=O)O)cc(S(=O)(=O)O)c45)ccc3C)c2)c1 [suramin],formation of apoptotic bodies,[3],did not enhance formation of apoptotic bodies
"NC1CCN(c2nc3c(cc2F)c(=O)c(C(=O)O)cn3-c2ccc(F)cc2F)C1 (centres unmarked) [tosulfoxacin, tosufloxacin]",inhibition of TO-PRO-3 uptake (PANX1-dependent dye uptake) by apoptotic cells,[7],partially inhibited ATP release and TO-PRO-3 uptake
same,inhibition of ATP release from apoptotic cells,[8],partially inhibited ATP release
same,formation of apoptotic bodies,[3],promoted the formation of apoptotic bodies
N[C@@H]1[C@H]2CN(c3nc4c(cc3F)c(=O)c(C(=O)O)cn4-c3ccc(F)cc3F)C[C@@H]12 [trovafloxacin],inhibition of TO-PRO-3 uptake (PANX1-dependent dye uptake) by apoptotic cells,[7],potent inhibitor of TO-PRO-3 uptake
same,TO-PRO-3 uptake after acute treatment of cells already undergoing apoptosis,"[7]; compound added post induction of apoptosis, 20 min",acutely blocked TO-PRO-3 uptake
same,inhibition of ATP release from apoptotic cells,[8],inhibited ATP release
same,caspase 3/7 activation during apoptosis,[9],did not inhibit caspase 3/7 activation
same,effect on outward current of apoptotic cells,[2],minimal effect on outward current
same,effect on inward current of apoptotic cells,[2],rapidly inhibited the inward current
same,inhibition of connexin 43 gap junction current,[10],did not inhibit
same,inhibition of PANX2 current,[11],did not inhibit
same,formation of apoptotic bodies,[3],promoted the formation of apoptotic bodies in a concentration-dependent manner
same,fragmentation of apoptotic thymocytes in vivo (SSC high particles),[12],promoted the fragmentation of the apoptotic thymocytes
same,Escherichia coli growth,[6],inhibit bacterial growth
same,formation of apoptopodia (string-like structures) by apoptotic cells,[4],produced long string-like structures
same,concentrations normally achieved in human plasma,[13],2000 to 10000 nM
same,side effects linked to use in patients,[14],serious adverse side effects
apyrase,formation of apoptotic bodies,[3],did not promote the formation of apoptotic bodies
